The values that follow come from patent US8680159B2, “Bradykinin 1 receptor modulating compounds” (Gruenenthal GmbH, priority 2010, dated 2014).

SMILES strings stand for the structures.

The first test has as its target T1, B1R receptor of the rat (CHO K1 cells stably transfected with the B1R gene of the rat) (Rattus norvegicus, UniProt P97583).
T1 construct: expressed in transfected cells; host or cells: CHO K1 cells (Chinese hamster ovary), stably transfected
T1 sequence (P97583 1-337): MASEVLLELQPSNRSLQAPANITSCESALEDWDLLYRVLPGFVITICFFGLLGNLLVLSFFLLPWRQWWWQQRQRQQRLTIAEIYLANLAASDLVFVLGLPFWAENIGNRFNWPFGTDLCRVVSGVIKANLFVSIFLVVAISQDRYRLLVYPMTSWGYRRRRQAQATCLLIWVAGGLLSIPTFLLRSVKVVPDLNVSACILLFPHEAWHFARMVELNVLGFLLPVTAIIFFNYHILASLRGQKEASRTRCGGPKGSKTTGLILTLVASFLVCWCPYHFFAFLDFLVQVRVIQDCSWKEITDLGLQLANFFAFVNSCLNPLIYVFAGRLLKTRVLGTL
The test can be described thus: Functional study on the bradykinin receptor 1 (B1R), Ca2+ fluorescence (Fluo-4) FLIPR/Novostar assay, rB1R cells. The test is classed as cell-based. The following applies: CHO-K1, 10 μM, library compounds CC_H, read-out: % Inhibition (r-B1R) at 10 μM. The method in brief: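 Ca2+ influx (Fluo-4, peak fluorescence, λex 488/λem 540 nm) was measured in CHO K1 lines expressing rat or human B1R. After a 10 μM test-compound pre-addition scoring % activation, cells received EC80 agonist: Des-Arg9-bradykinin for rat, Lys-Des-Arg9-bradykinin for human. Antagonism was expressed as % of maximum inhibition, with IC50 from varied concentrations.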
Take `CN(C)c1nccc(N2CCC(N(C)C(=O)c3ccc4c(c3)C(NC(=O)c3cccnc3C(F)(F)F)CC4)CC2)n1` (stereo not drawn) [CC_H-608, N-[6-[[1-(2-Dimethylamino-pyrimidin-4-yl)-piperidin-4-yl]-methyl-carbamoyl]-2,3-dihydro-1H-inden-1-yl]-2-(trifluoromethyl)-pyridine-3-carboxylic acid amide]: the inhibition at 10 µM was 102%.
In the case of `CN(C(=O)c1ccc2c(c1)C(NC(=O)c1ccccc1Cl)CC2)C1CCN(c2ccnc(C3CC3)n2)CC1` (stereo not drawn) [CC_H-627, 3-[(2-Chloro-benzoyl)amino]-N-[1-(2-cyclopropyl-pyrimidin-4-yl)-piperidin-4-yl]-N-methyl-2,3-dihydro-1H-indene-5-carboxylic acid amide], the inhibition at 10 µM turned out to be 100%.
Same read-out and setting: with `Cc1cc(N2CCC(N(C)C(=O)c3ccc4c(c3)C(NC(=O)CCC3CCCC3)CC4)CC2)nc(N(C)C)n1` (stereo not drawn) [CC_H-622, 3-(3-Cyclopentyl-propanoylamino)-N-[1-(2-dimethylamino-6-methyl-pyrimidin-4-yl)-piperidin-4-yl]-N-methyl-2,3-dihydro-1H-indene-5-carboxylic acid amide] the figure was 100%.

Still in this test, the particulars now being: CHO-K1, 10 μM, read-out: % Inhibition (r-B1R) at 10 μM.
For `Cc1cc(N2CCC(N(C)C(=O)c3ccc4c(c3)C(N(C)C(=O)N(C)c3ccccc3Cl)CC4)CC2)cc(C)n1` (stereo not drawn) [CC_H-349, 3-[[(2-Chlorophenyl)-methyl-carbamoyl]-methyl-amino]-N-[1-(2,6-dimethyl-pyridin-4-yl)-piperidin-4-yl]-N-methyl-2,3-dihydro-1H-indene-5-carboxylic acid amide], the inhibition at 10 µM amounted to 80%.
Turning to `CN(C(=O)c1ccc2c(c1)C(NC(=O)Nc1cccc(Cl)c1)CCO2)C1CCN(c2ccncc2)CC1` (stereo not drawn) [CC_H-281, 4-[[(3-Chlorophenyl)-carbamoyl]amino]-N-methyl-N-(1-pyridin-4-yl-piperidin-4-yl)-3,4-dihydro-2H-chromene-6-carboxylic acid amide], the inhibition at 10 µM was determined as 99%.
Still for that read-out and setting: with `CN(C(=O)c1ccc2c(c1)C(N(C)C(=O)C1CCCCC1)CC2)C1CCN(c2ccncc2)CC1` (stereo not drawn) [CC_H-211, 3-(Cyclohexanecarbonyl-methyl-amino)-N-methyl-N-(1-pyridin-4-yl-piperidin-4-yl)-2,3-dihydro-1H-indene-5-carboxylic acid amide] the figure was 108%; with `CC(C)CC(=O)NC1CCCc2ccc(C(=O)N(C)C3CCN(c4ccncc4)CC3)cc21` (stereo not drawn) [CC_H-271, N-Methyl-8-(3-methyl-butanoylamino)-N-(1-pyridin-4-yl-piperidin-4-yl)-5,6,7,8-tetrahydro-naphthalene-2-carboxylic acid amide], 109%.
On the same count and under the same terms, under `CN(C(=O)c1ccc2c(c1)C(NC(=O)c1cc(C(F)(F)F)ccc1Cl)CC2(C)C)C1CCN(c2ccncc2)CC1` (stereo not drawn) [CC_H-223, 3-[[2-Chloro-5-(trifluoromethyl)-benzoyl]amino]-N,1,1-trimethyl-N-(1-pyridin-4-yl-piperidin-4-yl)-2,3-dihydro-indene-5-carboxylic acid amide] stands 109%.
Same read-out and setting: with `Cc1cc(N2CCC(N(C)C(=O)c3ccc4c(c3)C(NC(=O)c3c(F)ccc(C)c3Cl)CC4)CC2)cc(C)n1` (stereo not drawn) [CC_H-295, 3-[(2-Chloro-6-fluoro-3-methyl-benzoyl)amino]-N-[1-(2,6-dimethyl-pyridin-4-yl)-piperidin-4-yl]-N-methyl-2,3-dihydro-1H-indene-5-carboxylic acid amide] the figure was 111%; with `Cc1cc(N2CCC(N(C)C(=O)c3ccc4c(c3)C(N(C)C(=O)CC(C)(C)C)CC4)CC2)cc(C)n1` (stereo not drawn) [CC_H-332, 3-(3,3-Dimethyl-butanoyl-methyl-amino)-N-[1-(2,6-dimethyl-pyridin-4-yl)-piperidin-4-yl]-N-methyl-2,3-dihydro-1H-indene-5-carboxylic acid amide], 111%.
As to `CN(C(=O)c1ccc2c(c1)C(NC(=O)c1cc(F)ccc1Cl)CC2)C1CCN(c2ccc3cnccc3c2)CC1` (stereo not drawn) [CC_H-356, 3-[(2-Chloro-5-fluoro-benzoyl)amino]-N-(1-isoquinolin-6-yl-piperidin-4-yl)-N-methyl-2,3-dihydro-1H-indene-5-carboxylic acid amide], the inhibition at 10 µM came out at 109%.
In the case of `CN(C(=O)NC1CCCc2ccc(C(=O)N(C)C3CCN(c4ccncc4)CC3)cc21)c1ccccc1Cl` (stereo not drawn) [CC_H-268, 8-[[(2-Chlorophenyl)-methyl-carbamoyl]amino]-N-methyl-N-(1-pyridin-4-yl-piperidin-4-yl)-5,6,7,8-tetrahydro-naphthalene-2-carboxylic acid amide], the inhibition at 10 µM came out at 110%.
Still for that read-out and setting: with `Cc1cc(N2CCC(N(C)C(=O)c3ccc4c(c3)C(N(C)C(=O)c3c(Cl)cccc3C(F)(F)F)CC4)CC2)cc(C)n1` (stereo not drawn) [CC_H-329, 3-[[2-Chloro-6-(trifluoromethyl)-benzoyl]-methyl-amino]-N-[1-(2,6-dimethyl-pyridin-4-yl)-piperidin-4-yl]-N-methyl-2,3-dihydro-1H-indene-5-carboxylic acid amide] the figure was 111%; with `CN(C(=O)c1ccc2c(c1)C(NC(=O)CC(C)(C)C)CCO2)C1CCN(c2ccncc2)CC1` (stereo not drawn) [CC_H-275, 4-(3,3-Dimethyl-butanoylamino)-N-methyl-N-(1-pyridin-4-yl-piperidin-4-yl)-3,4-dihydro-2H-chromene-6-carboxylic acid amide], 111%.
The same measure, in the same setting: with `Cc1cc(N2CCC(N(C)C(=O)c3ccc4c(c3)C(NS(=O)(=O)Cc3cccc(C(F)(F)F)c3)CC4)CC2)cc(C)n1` (stereo not drawn) [CC_H-322, N-[1-(2,6-Dimethyl-pyridin-4-yl)-piperidin-4-yl]-N-methyl-3-[[[3-(trifluoromethyl)phenyl]-methylsulfonyl]amino]-2,3-dihydro-1H-indene-5-carboxylic acid amide] the figure was 84%; with `CN(C(=O)NC1CCOc2ccc(C(=O)N(C)C3CCN(c4ccncc4)CC3)cc21)c1ccccc1Cl` (stereo not drawn) [CC_H-292, 4-[[(2-Chlorophenyl)-methyl-carbamoyl]amino]-N-methyl-N-(1-pyridin-4-yl-piperidin-4-yl)-3,4-dihydro-2H-chromene-6-carboxylic acid amide], 102%; with `COCC(=O)N(C)C1CCc2ccc(C(=O)N(C)C3CCN(c4cc(C)nc(C)c4)CC3)cc21` (stereo not drawn) [CC_H-333, N-[1-(2,6-Dimethyl-pyridin-4-yl)-piperidin-4-yl]-3-[(2-methoxy-acetyl)-methyl-amino]-N-methyl-2,3-dihydro-1H-indene-5-carboxylic acid amide], 84%.
Still for that read-out and setting: with `CN(C(=O)c1ccc2c(c1)C(NC(=O)Nc1c(Cl)cccc1Cl)CCC2)C1CCN(c2ccncc2)CC1` (stereo not drawn) [CC_H-257, 8-[[(2,6-Dichloro-phenyl)-carbamoyl]amino]-N-methyl-N-(1-pyridin-4-yl-piperidin-4-yl)-5,6,7,8-tetrahydro-naphthalene-2-carboxylic acid amide] the figure was 107%.
As for `Cc1cc(N2CCC(N(C)C(=O)c3ccc4c(c3)C(N(C)C(=O)N(C)c3ccc(Cl)cc3Cl)CC4)CC2)cc(C)n1` (stereo not drawn) [CC_H-350, 3[[(2,4-Dichlorophenyl)-methyl-carbamoyl]-methyl-amino]-N-[1-(2,6-dimethyl-pyridin-4-yl)-piperidin-4-yl]-N-methyl-2,3-dihydro-1H-indene-5-carboxylic acid amide], the inhibition at 10 µM was 108%.
Take `Cc1cc(N2CCC(N(C)C(=O)c3ccc4c(c3)C(N(C)C(=O)CC(C)C)CC4)CC2)cc(C)n1` (stereo not drawn) [CC_H-352, N-[1-(2,6-Dimethyl-pyridin-4-yl)-piperidin-4-yl]-N-methyl-3-[methyl-(3-methyl-butanoyl)-amino]-2,3-dihydro-1H-indene-5-carboxylic acid amide]: the inhibition at 10 µM is 110%.
For `CN(C(=O)c1ccc2c(c1)C(NC(=O)c1cc(Cl)ccc1Cl)CC2)C1CCN(c2ccncc2)CC1` (stereo not drawn) [CC_H-203, 3-[(2,5-Dichloro-benzoyl)amino]-N-methyl-N-(1-pyridin-4-yl-piperidin-4-yl)-2,3-dihydro-1H-indene-5-carboxylic acid amide], the inhibition at 10 µM is 111%.
As to `CN(C(=O)c1ccc2c(c1)C(NC(=O)C1CC1)CC2(C)C)C1CCN(c2ccncc2)CC1` (stereo not drawn) [CC_H-226, 3-(Cyclopropanecarbonylamino)-N,1,1-trimethyl-N-(1-pyridin-4-yl-piperidin-4-yl)-2,3-dihydro-indene-5-carboxylic acid amide], the inhibition at 10 µM turned out to be 99%.
The same measure, in the same setting: with `CN(C(=O)c1ccc2c(c1)C(NC(=O)Nc1ccccc1Cl)CC2(C)C)C1CCN(c2ccncc2)CC1` (stereo not drawn) [CC_H-232, 3-[[(2-Chlorophenyl)-carbamoyl]amino]-N,1,1-trimethyl-N-(1-pyridin-4-yl-piperidin-4-yl)-2,3-dihydro-indene-5-carboxylic acid amide] the figure was 96%; with `Cc1cc(N2CCC(N(C)C(=O)c3ccc4c(c3)C(NC(=O)Nc3ccc(Cl)cc3Cl)CC4)CC2)cc(C)n1` (stereo not drawn) [CC_H-310, 3-[[(2,4-Dichlorophenyl)-carbamoyl]amino]-N-[1-(2,6-dimethyl-pyridin-4-yl)-piperidin-4-yl]-N-methyl-2,3-dihydro-1H-indene-5-carboxylic acid amide], 101%.
